Measured values taken from patent US7495104B2, “Quinoline or quinazoline derivatives inhibiting auto-phosphorylation of fibroblast growth factor receptors” (Kirin Beer Kabushiki Kaisha, priority 2001, dated 2009).
Where a name gives a salt, the structure may show the parent alone.

biological target: Bek (Homo sapiens, UniProt P21802); experiment: Inhibitory activity against Bek-autophosphorylation using ELISA method in OCUM-2MD3 cells; type: cell-based; settings: 1 hr with compound, read-out: IC50 (concentration necessary for inhibiting 50% of Bek-phosphorylation)
Outline: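 Sandwich ELISA (anti-phosphotyrosine capture, anti-Bek detection, peroxidase, 450 nm) measured Bek autophosphorylation in OCUM-2MD3 lysates after 1 hr compound treatment at 37° C in 0.1% serum medium. IC50 derived by scaling between no-drug (100%) and excess positive control at 1000 nM (0%).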

Sequence of Bek (P21802 431-767 limits assumed): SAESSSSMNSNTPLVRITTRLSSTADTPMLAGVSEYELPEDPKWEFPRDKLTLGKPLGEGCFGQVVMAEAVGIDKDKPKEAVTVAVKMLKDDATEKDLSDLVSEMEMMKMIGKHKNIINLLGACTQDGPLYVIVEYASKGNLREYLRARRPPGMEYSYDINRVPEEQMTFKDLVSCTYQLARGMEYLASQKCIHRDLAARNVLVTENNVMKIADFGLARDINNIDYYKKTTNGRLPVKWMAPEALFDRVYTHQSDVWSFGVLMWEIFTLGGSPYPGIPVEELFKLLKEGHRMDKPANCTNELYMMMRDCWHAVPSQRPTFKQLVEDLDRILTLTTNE

| Structure (SMILES) | IC50 |
| --- | --- |
| COc1cc2c(Oc3ccc(NC(=O)NCCC(C)(C)C)c(Cl)c3)ccnc2cc1OCCCCN1CC(C)OC(C)C1 (centres unmarked) [Compound 321, 1-(2-Chloro-4-{7-[4-(2,6-dimethyl-morpholin-4-yl)-butoxy]-6-methoxy-quinolin-4-yloxy}-phenyl)-3-(3,3-dimethyl-butyl)-urea] | 25.4 nM |
| COc1cc2c(Oc3ccc(NC(=O)NCCC(C)(C)C)c(Cl)c3)ccnc2cc1OCCCCl [Compound 161, 1-{2-Chloro-4-[7-(3-chloro-propoxy)-6-methoxy-quinolin-4-yloxy]-phenyl}-3-(3,3-dimethyl-butyl)-urea] | 189 nM |
| COc1cc2nccc(Oc3ccc(Nc4ccc(C5CCCCC5)cc4)cc3)c2cc1OC [Compound 10, (4-Cyclohexylphenyl)-[4-(6,7-dimethoxyquinolin-4-yloxy)phenyl]-amine] | 631 nM |
| CCN(CCO)CCOc1cc2nccc(Oc3ccc(NC(=O)NCCC(C)(C)C)c(F)c3)c2cc1OC [Compound 341, 1-(3,3-Dimethyl-butyl)-3-[4-(7-{2-[ethyl-(2-hydroxy-ethyl)-amino]-ethoxy}-6-methoxy-quinolin-4-yloxy)-2-fluoro-phenyl]-urea] | 28.9 nM |
| COc1cc2c(Oc3ccc(Nc4ccc(C(C)(C)C)cc4)cc3)ccnc2cc1OCCCl [Compound 22, (4-Tert-butylphenyl)-{4-[7-(2-chloroethoxy)-6-methoxyquinolin-4-yloxy]phenyl}amine] | 189 nM |
| COc1cc2c(Oc3ccc(NC(=O)NCCC(C)(C)C)cc3)ccnc2cc1OCCCCN1CCCCC1 [Compound 157, 1-(3,3-Dimethyl-butyl)-3-{4-[6-methoxy-7-(4-piperidin-1-yl-butoxy)-quinolin-4-yloxy]-phenyl}-urea hydrochloride] | 28.5 nM |
| COc1cc2nccc(Oc3ccc(Nc4nc(C)c(C)s4)cc3)c2cc1OC [Compound 75, [4-(6,7-Dimethoxyquinolin-4-yloxy)phenyl]-(4,5-dimethylthiazol-2-yl)amine] | 5190 nM |
| COc1cc(Oc2ccnc3cc(OC)c(OC)cc23)ccc1Nc1ccc(C(C)(C)C)cc1 [Compound 14, (4-Tert-butylphenyl)-[4-(6,7-dimethoxyquinolin-4-yloxy)-2-methoxyphenyl]amine] | 1920 nM |
| COc1cc2c(Oc3ccc(Nc4ccc(C(C)(C)C)cc4)cc3)ncnc2cc1OCCN1CCOCC1 [Compound 78, (4-Tert-butylphenyl)-{4-[6-methoxy-7-(2-morpholin-4-ylethoxy)quinazolin-4-yloxy]phenyl}amine] | 274 nM |

Results, then the compound that gave them:

| IC50 | Structure (SMILES) |
| --- | --- |
| < 10 nM | CCN(CCO)CCCOc1cc2nccc(Oc3ccc(NC(=O)NCCC(C)(C)C)c(F)c3)c2cc1OC [Compound 344, 1-(3,3-Dimethyl-butyl)-3-[4-(7-{3-[ethyl-(2-hydroxy-ethyl)-amino]-propoxy}-6-methoxy-quinolin-4-yloxy)-2-fluoro-phenyl]-urea] |
| < 10 nM | COc1cc2c(Oc3ccc(NC(=O)NCCC(C)(C)C)cc3)ccnc2cc1OCC(O)CN1CCC(N2CCCCC2)CC1 (centres unmarked) [Compound 261, 1-{4-[7-(3-[1,4′]Bipiperidineyl-1′-yl-2-hydroxy-propoxy)-6-methoxy-quinolin-4-yloxy]-phenyl}-3-(3,3-dimethyl-butyl)-urea] |
| < 10 nM | COc1cc2c(Oc3ccc(NC(=O)NCCC(C)(C)C)c(Cl)c3)ccnc2cc1OCCCN(C)C [Compound 172, 1-{2-Chloro-4-[7-(3-dimethylamino-propoxy)-6-methoxy-quinolin-4-yloxy]-phenyl}-3-(3,3-dimethyl-butyl)-urea] |
| 24 nM | COc1cc2c(Oc3ccc(NC(=O)NCCC(C)(C)C)c(Cl)c3)ccnc2cc1OCC1CCNCC1 [Compound 168, 1-{2-Chloro-4-[6-methoxy-7-(piperidin-4-ylmethoxy)-quinolin-4-yloxy]-phenyl}-3-(3,3-dimethyl-butyl)-urea] |
| 27.8 nM | COc1cc2c(Oc3ccc(NC(=O)NCCC(C)(C)C)c(Cl)c3)ccnc2cc1OCCN1CCC(O)CC1 [Compound 274, 1-(2-Chloro-4-{7-[2-(4-hydroxy-piperidin-1-yl)-ethoxy]-6-methoxy-quinolin-4-yloxy}-phenyl)-3-(3,3-dimethyl-butyl)-urea] |
